Where a name gives a salt, the structure may show the parent alone.
Columns and labels:
[1] = In vivo rat PK: tafamidis in plasma, CSF and brain; parameters: species or system Male Sprague-Dawley (SD) rats; conditions: for Tafamidis CSF/Plasma Ratio (iv): iv administration of test compound; for Tafamidis CSF/Plasma Ratio over 24 hrs (po): po administration of test compound
Source text: For a compound provided herein to be an effective TTR stabilizer drug to halt and/or prevent the ocular and cerebral TTR amyloid deposition TTR amyloidosis, it has to be able to penetrate into the brain and CSF (surrogate for eye penetration) and deliver a sufficient amount of TTR stabilizer to stop TTR dissociation. A pharmacokinetic study in rat was used to evaluate the compounds. Male Sprague-Dawley (SD) rats (200-220 g weight) were acclimated for at least 2 to 3 days before being placed on study. All animals had access to certified rodent diet and water at libitum. Appropriate amount of the test compound was accurately weighed and mixed with appropriate volume of vehicle (such as DMSO/sterile water for iv dosing or 0.5% methylcellulose homogenous suspension or solution for oral administration or as a solution in a mixture NMP/PEG400/solutol/water) to administer a dose of 2, 5 or 10 mg/kg. For IV dosing the test compound was administered via tail vein or indwelling cannula. For oral dosing, the test compound was administered by oral gavage. Blood and CSF samples were collected at selected timepoints. Blood collection was performed from saphenous vein or tail vein of each animal into polypropylene tubes at each timepoint. All blood samples were transferred into EDTA-K2 tubes and centrifuged for 15 minutes at 4° C. for plasma collection. Plasma samples were kept at -80° C. until LC/MSMS analysis. CSF was collected from cisterna magna at each timepoint and quick frozen over dry ice and kept at -80° C. until LC/MSMS analysis. Brains were harvested immediately after the terminal bleeding (~ 24 hrs post dosing). The blood of the brain was perfused with normal saline. The brain was quickly picked and placed into centrifuge tube. The weight of brain samples was recorded. 4-Fold homogenization solution (MeOH/15 mM PBS (1:2)) was added into the tube according to the weighed samples. The brain was homogenized using a Polytron (3 strokes or more until homogenous, each 30 seconds) on wet ice. The samples were quick frozen over dry ice and kept at -80° C. until LC/MSMS analysis. Using a LC-MSMS method for the quantitative determination of test compound in biological matrixes, amount of test compound and active agent were measured in plasma and CSF at selected timepoints post-dosing and in brain at 24 hrs post dosing. Plasma concentration versus time data was analyzed by non-compartmental approaches using the Phoenix WinNonlin 6.3 software program. As reference, an oral dose of 2 mg/kg of tafamidis gave a CSF to plasma ratio over 24 hrs around 0.01 and a brain to plasma ratio at 24 hrs around 0.02.

[2] = In vitro rat liver S9 stability assay, formation of tafamidis; assay type: in vitro ADME; conditions: rat liver S9, 37° C., 1 µM test compound
Method: The test compound was added to liver S9 and incubated at 37° C. in a water bath at a concentration of 1 µM. At each time point (0, 5, 10, 20, 30 and 60 min), stop solution (tolbutamide plus labetalol) was added to precipitate protein and mixed thoroughly. After centrifugation, an aliquot of supernatant was analyzed by LC-MS/MS. The percentage of formation of active agent was calculated at each time point.

[3] = In vitro rat plasma stability assay, formation of tafamidis; assay type: in vitro ADME; conditions: 37° C., 2 µM test compound
Procedure, shortened: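 Compound at 2 µM incubated in rat plasma at 37 °C, sampled at 0, 10, 30, 60, 120 min or 0, 60, 120, 180, 240 min. Protein precipitated, supernatant analyzed by LC-MS/MS, and percentage formation of tafamidis calculated per time point.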

Row | SMILES | Tafamidis CSF/Plasma Ratio (iv) [1] | Formation of tafamidis at 60 min [2] | Formation of tafamidis at 120 min [3] | Tafamidis CSF/Plasma Ratio over 24 hrs (po) [1]
1 | O=C(OCCN1CCCC1)c1ccc2nc(-c3cc(Cl)cc(Cl)c3)oc2c1 [Compound 37, 2-(pyrrolidin-1-yl)ethyl 2-(3,5-dichlorophenyl)benzo[d]oxazole-6-carboxylate] | A (A is <0.015) | B (B is ≥25 to <50%) | B (B is ≥25 to <50%) | 
2 | O=C(OCCCN1CCCC1)c1ccc2nc(-c3cc(Cl)cc(Cl)c3)oc2c1 [Compound 40, 3-(pyrrolidin-1-yl)propyl 2-(3,5-dichlorophenyl)benzo[d] oxazole-6-carboxylate] | B (B is ≥0.015 to <0.02) | A (A is <25%) | B (B is ≥25 to <50%) | 
3 | CN1CC[C@H](OC(=O)c2ccc3nc(-c4cc(Cl)cc(Cl)c4)oc3c2)C1 [Compound 58, (S)-1-methylpyrrolidin-3-yl 2-(3,5-dichlorophenyl)benzo[d] oxazole-6-carboxylate hydrochloride] |  | A (A is <25%) | D (D is ≥75%) | A (A is < 0.015)
4 | CN1CC[C@@H](OC(=O)c2ccc3nc(-c4cc(Cl)cc(Cl)c4)oc3c2)C1 [Compound 59, (R)-1-methylpyrrolidin-3-yl 2-(3,5-dichlorophenyl)benzo[d] oxazole-6-carboxylate] |  | A (A is <25%) | C (C is ≥50 to <75%) | B (B is ≥0.015 to <0.02)
5 | CN1CCC(COC(=O)c2ccc3nc(-c4cc(Cl)cc(Cl)c4)oc3c2)C1 (centres unmarked) [Compound 60, (1-methylpyrrolidin-3-yl)methyl 2-(3,5-dichlorophenyl)benzo [d] oxazole-6-carboxylate] | B (B is ≥0.015 to <0.02) | A (A is <25%) | A (A is <25%) | 
6 | CN1CCCC(OC(=O)c2ccc3nc(-c4cc(Cl)cc(Cl)c4)oc3c2)C1 (centres unmarked) [Compound 62] |  | B (B is ≥25 to <50%) | B (B is ≥25 to <50%) | A (A is < 0.015)
7 | O=C(NCC(F)F)c1ccc2nc(-c3cc(Cl)cc(Cl)c3)oc2c1 [Compound 66, 2-(3,5-dichlorophenyl)-N-(2,2-difluoroethyl)benzo[d]oxazole-6-carboxamide] |  | A (A is <25%) | A (A is <25%) | C (C is ≥0.02)
8 | O=C(OCCN1CCNCC1)c1ccc2nc(-c3cc(Cl)cc(Cl)c3)oc2c1 [Compound 82] |  | A (A is <25%) | A (A is <25%) | A (A is < 0.015)
9 | CNC(=O)c1ccc2nc(-c3cc(Cl)cc(Cl)c3)oc2c1 [Compound 87] |  | A (A is <25%) | A (A is <25%) | A (A is < 0.015)
10 | O=C(OCc1ncccn1)c1ccc2nc(-c3cc(Cl)cc(Cl)c3)oc2c1 [Compound 102] |  | C (C is ≥50 to <75%) | B (B is ≥25 to <50%) | A (A is < 0.015)
11 | O=C(OCCCn1ccnc1)c1ccc2nc(-c3cc(Cl)cc(Cl)c3)oc2c1 [Compound 117] |  | D (D is ≥75%) | B (B is ≥25 to <50%) | B (B is ≥0.015 to <0.02)
12 | CS(=O)(=O)N1CCC(OC(=O)c2ccc3nc(-c4cc(Cl)cc(Cl)c4)oc3c2)C1 (centres unmarked) [Compound 139] |  | B (B is ≥25 to <50%) | A (A is <25%) | A (A is < 0.015)
13 | O=C(c1ccc2nc(-c3cc(Cl)cc(Cl)c3)oc2c1)N1CCNCC1 [Compound 145] |  | A (A is <25%) | A (A is <25%) | B (B is ≥0.015 to <0.02)
14 | O=C(OC1CCN(CC(F)(F)F)C1)c1ccc2nc(-c3cc(Cl)cc(Cl)c3)oc2c1 (centres unmarked) [Compound 151] |  | D (D is ≥75%) | A (A is <25%) | B (B is ≥0.015 to <0.02)

Now from value to compound:

Row | Tafamidis CSF/Plasma Ratio (iv) [1] | Formation of tafamidis at 60 min [2] | Formation of tafamidis at 120 min [3] | Tafamidis CSF/Plasma Ratio over 24 hrs (po) [1] | SMILES
15 | B (B is ≥0.015 to <0.02) | A (A is <25%) | B (B is ≥25 to <50%) | B (B is ≥0.015 to <0.02) | CCN(CC)CCCOC(=O)c1ccc2nc(-c3cc(Cl)cc(Cl)c3)oc2c1 [Compound 38, 3-(diethylamino)propyl 2-(3,5-dichlorophenyl)benzo[d] oxazole-6-carboxylate]
16 | B (B is ≥0.015 to <0.02) | A (A is <25%) | A (A is <25%) |  | O=C(OCCCN1CCC1)c1ccc2nc(-c3cc(Cl)cc(Cl)c3)oc2c1 [Compound 39, 3-(azetidin-1-yl)propyl 2-(3,5-dichlorophenyl)benzo[d] oxazole-6-carboxylate]
17 | C (C is ≥0.02) | A (A is <25%) | C (C is ≥50 to <75%) | A (A is < 0.015) | O=C(OCCCN1CCCCC1)c1ccc2nc(-c3cc(Cl)cc(Cl)c3)oc2c1 [Compound 41, 3-(piperidin-1-yl)propyl 2-(3,5-dichlorophenyl)benzo[d] oxazole-6-carboxylate]
18 | B (B is ≥0.015 to <0.02) | B (B is ≥25 to <50%) | B (B is ≥25 to <50%) |  | CN1C[C@H](OC(=O)c2ccc3nc(-c4cc(Cl)cc(Cl)c4)oc3c2)[C@@H](O)C1 [Compound 57, (3S,4S)-4-hydroxy-1-methylpyrrolidin-3-yl 2-(3,5-dichlorophenyl)benzo[d] oxazole-6-carboxylate]
19 |  | A (A is <25%) | C (C is ≥50 to <75%) | C (C is ≥0.02) | CCN1CCC(OC(=O)c2ccc3nc(-c4cc(Cl)cc(Cl)c4)oc3c2)C1 (centres unmarked) [Compound 74]
20 |  | A (A is <25%) | B (B is ≥25 to <50%) | B (B is ≥0.015 to <0.02) | CC(C)N1CCC(OC(=O)c2ccc3nc(-c4cc(Cl)cc(Cl)c4)oc3c2)C1 (centres unmarked) [Compound 75]
21 |  | A (A is <25%) | C (C is ≥50 to <75%) | B (B is ≥0.015 to <0.02) | O=C(OC1CCN(Cc2ccccc2)C1)c1ccc2nc(-c3cc(Cl)cc(Cl)c3)oc2c1 (centres unmarked) [Compound 76]
22 |  | C (C is ≥50 to <75%) | B (B is ≥25 to <50%) | A (A is < 0.015) | O=C(OCCN1CCS(=O)(=O)CC1)c1ccc2nc(-c3cc(Cl)cc(Cl)c3)oc2c1 [Compound 79]
23 |  | C (C is ≥50 to <75%) | C (C is ≥50 to <75%) | B (B is ≥0.015 to <0.02) | O=C(OCC1CCOC1)c1ccc2nc(-c3cc(Cl)cc(Cl)c3)oc2c1 (centres unmarked) [Compound 85]
24 |  | A (A is <25%) | A (A is <25%) | A (A is < 0.015) | O=C(NCCF)c1ccc2nc(-c3cc(Cl)cc(Cl)c3)oc2c1 [Compound 88]
25 |  | D (D is ≥75%) | A (A is <25%) | A (A is < 0.015) | Cn1ccc(COC(=O)c2ccc3nc(-c4cc(Cl)cc(Cl)c4)oc3c2)n1 [Compound 90]
26 |  | C (C is ≥50 to <75%) | B (B is ≥25 to <50%) | B (B is ≥0.015 to <0.02) | O=C(OC1CCN(CC(F)F)C1)c1ccc2nc(-c3cc(Cl)cc(Cl)c3)oc2c1 (centres unmarked) [Compound 144]
